What was measured:
[1] = Paclitaxel release from coated stent or plate into phosphate buffer pH 7.4 with 0.3% SDS, HPLC; format: physicochemical; conditions: stents/plates coated with polypyrrole derivatives
Experimental: The release characteristic of the stent or plate was determined by placing drug-loaded device into buffer phosphate solution, pH 7.4, which contained 0.3% SDS, to increase the solubility of paclitaxel, and the daily release was determined by HPLC.

[2] = Paclitaxel release from pyrrole-functionalized PLA nanoparticles in 0.1N phosphate buffer; format: physicochemical; conditions: immersed in 0.1N phosphate buffer solution
Experimental: In a representative example, nanoparticles were prepared by dispersing a chloroform solution of a pyrrole polymer prepared as described hereinabove (0.1 gram), polylactic acid (0.4 grams, Mn=3,000) and paclitaxel (0.15 gram) in de-ionized water at room temperature with constant stirring.

absorbed drug released into the buffer medium ([1]; after 3 days): about 50%
duration of slow release of the remaining drug [1]: over 3 weeks
Structure (SMILES): CC(=O)O[C@H]1C(=O)[C@@]2(C)[C@H]([C@H](OC(=O)c3ccccc3)[C@]3(O)C[C@H](OC(=O)[C@H](O)[C@@H](NC(=O)c4ccccc4)c4ccccc4)C(C)=C1C3(C)C)[C@]1(OC(C)=O)CO[C@@H]1C[C@@H]2O [paclitaxel]
release of paclitaxel from nanoparticles [2]: released constantly from these particles during two weeks

Source: US20090232867A1, “Modified conductive surfaces having active substances attached thereto” (Elutex Ltd., priority 2004, published 2009)
